Assay results from PubChem BioAssay (NCI).
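Here, GI50 denotes the concentration required for 50% inhibition of growth. The concentration for full growth arrest is given as TGI.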

Assays:
Assay in all cases: NCI anticancer screen, dose series, 384-well format
786-0 renal = test system: 786-0 renal
A498 renal = test system: A498 renal
A549 NSCLC = test system: A549 NSCLC
ACHN renal = test system: ACHN renal
BT-549 breast = test system: BT-549 breast
CAKI-1 renal = test system: CAKI-1 renal
COLO 205 colon = test system: COLO 205 colon
DU-145 prostate = test system: DU-145 prostate
EKVX NSCLC = test system: EKVX NSCLC
HCC-2998 colon = test system: HCC-2998 colon
HCT-116 colon = test system: HCT-116 colon
HCT-15 colon = test system: HCT-15 colon
HL-60(TB) leukemia = test system: HL-60(TB) leukemia
HOP-62 NSCLC = test system: HOP-62 NSCLC
HOP-92 NSCLC = test system: HOP-92 NSCLC
HS 578T breast = test system: HS 578T breast
HT29 colon = test system: HT29 colon
IGROV1 ovarian = test system: IGROV1 ovarian
KM12 colon = test system: KM12 colon
LOX IMVI melanoma = test system: LOX IMVI melanoma
M14 melanoma = test system: M14 melanoma
MALME-3M melanoma = test system: MALME-3M melanoma
MCF7 breast = test system: MCF7 breast
MDA-MB-231 breast = test system: MDA-MB-231 breast
MDA-MB-435 melanoma = test system: MDA-MB-435 melanoma
MDA-MB-468 breast = test system: MDA-MB-468 breast
MOLT-4 leukemia = test system: MOLT-4 leukemia
NCI-H226 lung = test system: NCI-H226 lung
NCI-H23 lung = test system: NCI-H23 lung
NCI-H322M lung = test system: NCI-H322M lung
NCI-H460 NSCLC = test system: NCI-H460 NSCLC
NCI-H522 lung = test system: NCI-H522 lung
NCI/ADR-RES ovarian = test system: NCI/ADR-RES ovarian
OVCAR-3 ovarian = test system: OVCAR-3 ovarian
OVCAR-4 ovarian = test system: OVCAR-4 ovarian
OVCAR-5 ovarian = test system: OVCAR-5 ovarian
OVCAR-8 ovarian = test system: OVCAR-8 ovarian
PC-3 prostate = test system: PC-3 prostate
RPMI-8226 leukemia = test system: RPMI-8226 leukemia
RXF 393 renal = test system: RXF 393 renal
SF-268 CNS = test system: SF-268 CNS
SF-295 CNS = test system: SF-295 CNS
SF-539 CNS = test system: SF-539 CNS
SK-MEL-28 melanoma = test system: SK-MEL-28 melanoma
SK-MEL-5 melanoma = test system: SK-MEL-5 melanoma
SK-OV-3 ovarian = test system: SK-OV-3 ovarian
SN12C renal = test system: SN12C renal
SNB-19 CNS = test system: SNB-19 CNS
SNB-75 CNS = test system: SNB-75 CNS
SR leukemia = test system: SR leukemia
SW-620 colon = test system: SW-620 colon
T-47D breast = test system: T-47D breast
TK-10 renal = test system: TK-10 renal
U251 glioblastoma = test system: U251 glioblastoma
UACC-257 melanoma = test system: UACC-257 melanoma
UACC-62 melanoma = test system: UACC-62 melanoma
UO-31 renal = test system: UO-31 renal

Work on `Cc1ccc(C(=O)Nc2ccc(CN3CCN(C)CC3)c(C(F)(F)F)c2)cc1C#Cc1cnc2cccnn12` yielded a GI50 (786-0 renal) of 339 nM, a TGI (786-0 renal) of 1060 nM and a GI50 (A498 renal) of 390 nM. The TGI (A498 renal) was 1310 nM, the GI50 (A549 NSCLC) was 361 nM and the TGI (A549 NSCLC) was 1250 nM. For the same molecule, the GI50 (ACHN renal) was 210 nM, the TGI (ACHN renal) was 685 nM and the GI50 (BT-549 breast) was 309 nM. For the same molecule, the TGI (BT-549 breast) was 1000 nM, the GI50 (CAKI-1 renal) was 210 nM and the TGI (CAKI-1 renal) was 504 nM. The GI50 (COLO 205 colon) was 348 nM, the TGI (COLO 205 colon) was 1440 nM and the GI50 (DU-145 prostate) was 345 nM. The TGI (DU-145 prostate) was 1190 nM, the GI50 (EKVX NSCLC) was 574 nM and the TGI (EKVX NSCLC) was 1780 nM. It also gave a GI50 (HCC-2998 colon) of 500 nM, a TGI (HCC-2998 colon) of 1290 nM and a GI50 (HCT-116 colon) of 193 nM. It also gave a TGI (HCT-116 colon) of 541 nM, a GI50 (HCT-15 colon) of 265 nM and a TGI (HCT-15 colon) of 1020 nM. The GI50 (HL-60(TB) leukemia) was 163 nM, the TGI (HL-60(TB) leukemia) was 320 nM and the GI50 (HOP-62 NSCLC) was 403 nM. For the same molecule, the TGI (HOP-62 NSCLC) was 1380 nM, the GI50 (HOP-92 NSCLC) was 249 nM and the TGI (HOP-92 NSCLC) was 580 nM. For the same molecule, the GI50 (HS 578T breast) was 107 nM, the TGI (HS 578T breast) was 290 nM and the GI50 (HT29 colon) was 221 nM. It also gave a TGI (HT29 colon) of 607 nM, a GI50 (IGROV1 ovarian) of 180 nM and a TGI (IGROV1 ovarian) of 558 nM. The GI50 (KM12 colon) was 46 nM, the TGI (KM12 colon) was 1380 nM and the GI50 (LOX IMVI melanoma) was 153 nM. It also gave a TGI (LOX IMVI melanoma) of 307 nM, a GI50 (M14 melanoma) of 167 nM and a TGI (M14 melanoma) of 573 nM. It also gave a GI50 (MALME-3M melanoma) of 104 nM, a TGI (MALME-3M melanoma) of 226 nM and a GI50 (MCF7 breast) of 560 nM. It also gave a TGI (MCF7 breast) of 1830 nM, a GI50 (MDA-MB-231 breast) of 171 nM and a TGI (MDA-MB-231 breast) of 399 nM. It also gave a GI50 (MDA-MB-435 melanoma) of 425 nM, a TGI (MDA-MB-435 melanoma) of 1340 nM and a GI50 (MDA-MB-468 breast) of 563 nM. The TGI (MDA-MB-468 breast) was 1580 nM, the GI50 (MOLT-4 leukemia) was 203 nM and the TGI (MOLT-4 leukemia) was 619 nM. The GI50 (NCI-H226 lung) was 47.6 nM, the TGI (NCI-H226 lung) was 240 nM and the GI50 (NCI-H23 lung) was 246 nM. The TGI (NCI-H23 lung) was 797 nM, the GI50 (NCI-H322M lung) was 275 nM and the TGI (NCI-H322M lung) was 692 nM. It also gave a GI50 (NCI-H460 NSCLC) of 396 nM, a TGI (NCI-H460 NSCLC) of 1510 nM and a GI50 (NCI-H522 lung) of 147 nM. For the same molecule, the TGI (NCI-H522 lung) was 582 nM, the GI50 (NCI/ADR-RES ovarian) was 315 nM and the TGI (NCI/ADR-RES ovarian) was 1000 nM. For the same molecule, the GI50 (OVCAR-3 ovarian) was 374 nM, the TGI (OVCAR-3 ovarian) was 1370 nM and the GI50 (OVCAR-4 ovarian) was 538 nM. It also gave a TGI (OVCAR-4 ovarian) of 1820 nM, a GI50 (OVCAR-5 ovarian) of 516 nM and a TGI (OVCAR-5 ovarian) of 1680 nM. It also gave a GI50 (OVCAR-8 ovarian) of 344 nM, a TGI (OVCAR-8 ovarian) of 1220 nM and a GI50 (PC-3 prostate) of 872 nM. The TGI (PC-3 prostate) was 2070 nM, the GI50 (RPMI-8226 leukemia) was 288 nM and the TGI (RPMI-8226 leukemia) was 760 nM. For the same molecule, the GI50 (RXF 393 renal) was 284 nM, the TGI (RXF 393 renal) was 621 nM and the GI50 (SF-268 CNS) was 222 nM. For the same molecule, the TGI (SF-268 CNS) was 844 nM, the GI50 (SF-295 CNS) was 1080 nM and the TGI (SF-295 CNS) was 2270 nM. For the same molecule, the GI50 (SF-539 CNS) was 109 nM, the TGI (SF-539 CNS) was 245 nM and the GI50 (SK-MEL-28 melanoma) was 362 nM. For the same molecule, the TGI (SK-MEL-28 melanoma) was 1270 nM, the GI50 (SK-MEL-5 melanoma) was 170 nM and the TGI (SK-MEL-5 melanoma) was 373 nM. For the same molecule, the GI50 (SK-OV-3 ovarian) was 297 nM, the TGI (SK-OV-3 ovarian) was 1210 nM and the GI50 (SN12C renal) was 324 nM. For the same molecule, the TGI (SN12C renal) was 1100 nM, the GI50 (SNB-19 CNS) was 1270 nM and the TGI (SNB-19 CNS) was 2560 nM. It also gave a GI50 (SNB-75 CNS) of 217 nM, a TGI (SNB-75 CNS) of 790 nM and a GI50 (SR leukemia) of 521 nM. It also gave a TGI (SR leukemia) of 801 nM, a GI50 (SW-620 colon) of 399 nM and a TGI (SW-620 colon) of 1480 nM. It also gave a GI50 (T-47D breast) of 608 nM, a TGI (T-47D breast) of 1810 nM and a GI50 (TK-10 renal) of 737 nM. It also gave a TGI (TK-10 renal) of 1970 nM, a GI50 (U251 glioblastoma) of 492 nM and a TGI (U251 glioblastoma) of 1610 nM. The GI50 (UACC-257 melanoma) was 222 nM, the TGI (UACC-257 melanoma) was 419 nM and the GI50 (UACC-62 melanoma) was 144 nM. The TGI (UACC-62 melanoma) was 745 nM, the GI50 (UO-31 renal) was 392 nM and the TGI (UO-31 renal) was 1150 nM.
